These results are taken from patent US8445509B2, “Fused heterocyclic derivatives and use thereof” (Takeda Pharmaceutical Company Limited, priority 2008, dated 2013).

Some results are limits rather than exact numbers.

For experiment [1], the target named is T1, VEGFR2 intracellular domain protein (Homo sapiens, UniProt P35968).
T1 construct: made in house; host or cells: SF-21 insect cells, recombinant baculovirus BAC-VEGFR2
The experiment is described as follows: Vascular endothelial growth factor receptor 2 (VEGFR2) kinase inhibitory activity (AlphaScreen). In kind it is biochemical. The procedure: Human vascular endothelial growth factor receptor 2 (hereinafter to be referred to as VEGFR2) gene was cloned by PCR using cDNA Libraries Human Placenta (Clontech) as a template. […] The primer base sequence is shown below.
SF-21 cells were sown at 1×10^6 cells/mL to Sf-900II SFM medium (1 L, Invitrogen) containing 10% fetal bovine serum (trace), 50 mg/L Gentamicin (Invitrogen) and 0.1% Pluronic F-68 (Invitrogen), and shaking culture was performed using a 2 L volume Erlenmeyer flask at 27° C., 100 rpm. After culturing for 24 hrs, recombinant baculovirus BAC-VEGFR2 (13.4 mL) was added to the mixture, and the mixture was further cultured for 3 days. The culture medium was centrifuged at 2,000 rpm for 5 min to give virus-infected cells. The infected cells were washed with a phosphate buffered saline (Invitrogen), centrifuged under the same conditions, and the cells were preserved at −80° C. The cryopreserved cells were thawed in ice, suspended in buffer A (50 mM Tris buffer (30 mL, pH 7.4) containing 20% glycerol, 0.15 M NaCl) supplemented with Complete Protease Inhibitor (Boehringer), and ruptured 3 times with a Polytron homogenizer (Kinematica) at 20,000 rpm for 30 sec. The ruptured medium was clarified by centrifugation at 40,000 rpm for 30 min and filtered with a 0.45 μm filter. The filtrate was passed through a column packed with Anti-FLAG M2 Affinity Gel (4 mL, Sigma) at a flow rate of about 0.5 mL/min. The column was washed with buffer A, and eluted with buffer A containing 100 μg/mL of FLAG peptide. The eluate was concentrated with Vivaspin 20 (Vivascience) having a molecular weight cut off of 30K. The buffer of this concentrate was exchanged using NAP™ 25 column (Amersham Bioscience) equilibrated with buffer A. The fractions containing intracellular domain protein of VEGFR2 were collected, glycerol was added to the final concentration of 50% and cryopreserved at −80° C.
A test compound dissolved in dimethyl sulfoxide (DMSO) was diluted with a buffer (50 mM Tris-HCl (pH 7.5), 5 mM MgCl2, 5 mM MnCl2, 2 mM dithiothreitol, 0.01% Tween-20). To this compound solution (5 μL) was added a buffer (10 μL) containing 50 ng/mL of VEGFR2 intracellular domain protein and 250 ng/mL of biotin labeled polypeptide biotinyl-poly-Glu:Tyr (4:1) (CIS bio International). […] The reaction solution was allowed to stand at 25° C. for 16 hrs, and the wells were counted using a plate reader (Fusion™ (PerkinElmer)). The kinase inhibitory rate (%) of the test compound was calculated by the following formula: Inhibitory rate (%)=(1−(count of test compound−blank)÷(control−blank))×100
The count of the solution reacted without addition of the compound was used as a “control”, and the count of the solution without the compound and ATP was used as a “blank”.
For orientation: Alpha assays give light when donor and acceptor beads are brought close together.

For experiment [2], the target named is T2, Tie2 intracellular domain protein (Homo sapiens, UniProt Q02763).
T2 construct: 50 ng/mL of Tie2 intracellular domain protein (Millipore); purchased Millipore
T2 sequence (Q02763 770-1124 limits assumed): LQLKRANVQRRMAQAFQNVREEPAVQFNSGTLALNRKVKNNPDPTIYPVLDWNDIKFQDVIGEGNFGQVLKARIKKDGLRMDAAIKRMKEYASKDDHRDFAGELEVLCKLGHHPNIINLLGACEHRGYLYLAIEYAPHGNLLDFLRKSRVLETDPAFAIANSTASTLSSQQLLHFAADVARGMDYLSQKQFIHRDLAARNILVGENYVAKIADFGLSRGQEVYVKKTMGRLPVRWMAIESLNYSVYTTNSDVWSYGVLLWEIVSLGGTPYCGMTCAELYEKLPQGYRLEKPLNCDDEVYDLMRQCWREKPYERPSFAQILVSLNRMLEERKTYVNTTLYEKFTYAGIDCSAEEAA
The experiment is described as follows: TIE2 kinase inhibitory activity (AlphaScreen). In kind it is biochemical.

For experiment [3], the system named is Human blood cell cancer cell line MV-4-11. Nature of the experiment: Human blood cell cancer cell line MV-4-11 growth inhibitory test. In kind it is cell-based. The note with it: MV4-11, 72 h, culture for 3 days; for inhibition at 1 µM: 1 μM test substance, read-out: inhibitory rate (%) at 1 μM.

T1 sequence (P35968 786-1356 limits assumed): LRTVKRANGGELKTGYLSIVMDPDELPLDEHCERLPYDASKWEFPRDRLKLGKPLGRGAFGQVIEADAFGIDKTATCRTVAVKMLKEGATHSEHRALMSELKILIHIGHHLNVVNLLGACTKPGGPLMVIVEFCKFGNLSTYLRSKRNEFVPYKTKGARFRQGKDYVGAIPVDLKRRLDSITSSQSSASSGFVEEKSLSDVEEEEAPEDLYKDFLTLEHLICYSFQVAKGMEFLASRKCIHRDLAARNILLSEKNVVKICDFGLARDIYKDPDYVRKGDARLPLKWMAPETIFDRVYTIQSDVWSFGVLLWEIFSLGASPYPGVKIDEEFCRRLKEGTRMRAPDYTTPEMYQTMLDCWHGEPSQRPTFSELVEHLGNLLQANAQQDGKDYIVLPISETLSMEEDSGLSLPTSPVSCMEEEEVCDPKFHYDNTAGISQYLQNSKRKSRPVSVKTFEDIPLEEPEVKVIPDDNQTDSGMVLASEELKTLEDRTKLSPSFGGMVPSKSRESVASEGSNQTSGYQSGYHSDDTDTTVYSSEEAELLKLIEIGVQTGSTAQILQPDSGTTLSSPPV

As a reminder, the IC50 is the midpoint of a concentration-inhibition curve. Take `O=C(Nc1ccc(Oc2ccc3nc(NC(=O)C4CC4)cn3c2)c(F)c1)c1cccn(-c2ccc(F)cc2)c1=O` [Example 10, N-[4-({2-[(cyclopropylcarbonyl)amino]imidazo[1,2-a]pyridin-6-yl}oxy)-3-fluorophenyl]-1-(4-fluorophenyl)-2-oxo-1,2-dihydropyridine-3-carboxamide]: the IC50 in experiment [1], in experiment [2] and in experiment [3] was at most 1 µM throughout. Also, the inhibition at 1 µM in experiment [3] was at least 90%.

Regarding `Cc1ccc(C(=O)Nc2ccc(Oc3ccc4nc(NC(=O)C5CC5)cn4c3)c(Cl)c2)c(=O)n1-c1ccc(F)cc1` [Example 57, N-[3-chloro-4-({2-[(cyclopropylcarbonyl)amino]imidazo[1,2-a]pyridin-6-yl}oxy)phenyl]-1-(4-fluorophenyl)-6-methyl-2-oxo-1,2-dihydropyridine-3-carboxamide], the IC50 in experiment [1], in experiment [2] and in experiment [3] was at most 1 µM each time. Further, the inhibition at 1 µM in experiment [3] is at least 90%.

Regarding `Cc1ccc(C(=O)Nc2ccc(Oc3ccc4nc(NC(=O)C5CC5)cn4c3)cc2)[n+]([O-])c1-c1ccc(F)cc1` [Example 72, N-[4-({2-[(cyclopropylcarbonyl)amino]imidazo[1,2-a]pyridin-6-yl}oxy)phenyl]-6-(4-fluorophenyl)-5-methylpyridine-2-carboxamide 1-oxide], the IC50 in experiment [1], in experiment [2] and in experiment [3] was at most 1 µM each time. Further, the inhibition at 1 µM in experiment [3] is at least 90%.

For `O=C(Nc1nc2ccc(Oc3ccc(NC(=O)C4(C(=O)Nc5ccccc5)CC4)cc3F)cc2s1)C1CC1` [Example 18, N-[4-({2-[(cyclopropylcarbonyl)amino]-1,3-benzothiazol-6-yl}oxy)-3-fluorophenyl]-N′-phenylcyclopropane-1,1-dicarboxamide], the IC50 in experiment [1], in experiment [2] and in experiment [3] was at most 1 µM each time. In addition, the inhibition at 1 µM in experiment [3] is at least 90%.

As for `Cc1ccc(C(=O)Nc2ccc(Oc3ccc4nc(NC(=O)C5CC5)cn4c3)c(F)c2)c(=O)n1-c1cccc(F)c1` [Example 75, N-[4-({2-[(cyclopropylcarbonyl)amino]imidazo[1,2-a]pyridin-6-yl}oxy)-3-fluorophenyl]-1-(3-fluorophenyl)-6-methyl-2-oxo-1,2-dihydropyridine-3-carboxamide], the IC50 in experiment [1], in experiment [2] and in experiment [3] was at most 1 µM throughout. In experiment [3], the inhibition at 1 µM is at least 90%.

Regarding `O=C(Nc1cn2cc(Oc3ccc(NC(=O)C4(C(=O)Nc5ccccc5)CC4)cc3F)ccc2n1)C1CC1` [Example 14, N-[4-({2-[(cyclopropylcarbonyl)amino]imidazo[1,2-a]pyridin-6-yl}oxy)-3-fluorophenyl]-N′-phenylcyclopropane-1,1-dicarboxamide], the IC50 in experiment [1], in experiment [2] and in experiment [3] was at most 1 µM each time. Also, the inhibition at 1 µM in experiment [3] is at least 90%.

For `Cc1c(C(=O)Nc2ccc(Oc3ccc4nc(NC(=O)C5CC5)cn4c3)c(F)c2)c(=O)n(-c2ccc(F)cc2)n1C` [Example 77, N-[4-({2-[(cyclopropylcarbonyl)amino]imidazo[1,2-a]pyridin-6-yl}oxy)-3-fluorophenyl]-2-(4-fluorophenyl)-1,5-dimethyl-3-oxo-2,3-dihydro-1H-pyrazole-4-carboxamide], the IC50 in experiment [1], in experiment [2] and in experiment [3] was at most 1 µM each time. The inhibition at 1 µM in experiment [3] is at least 90%.

Turning to `Cc1cc(C)n(-c2ccc(F)cc2)c(=O)c1C(=O)Nc1ccc(Oc2ccc3nc(NC(=O)C4CC4)cn3c2)c(F)c1` [Example 82, N-[4-({2-[(cyclopropylcarbonyl)amino]imidazo[1,2-a]pyridin-6-yl}oxy)-3-fluorophenyl]-1-(4-fluorophenyl)-4,6-dimethyl-2-oxo-1,2-dihydropyridine-3-carboxamide], the IC50 in experiment [1], in experiment [2] and in experiment [3] was at most 1 µM each time. In experiment [3], the inhibition at 1 µM was at least 90%.

`CC1=C(c2ccc(F)cc2)C(=O)N(C(=O)Nc2ccc(Oc3ccc4nc(NC(=O)C5CC5)cn4c3)c(F)c2)CC1` [Example 81, N-[4-({2-[(cyclopropylcarbonyl)amino]imidazo[1,2-a]pyridin-6-yl}oxy)-3-fluorophenyl]-5-(4-fluorophenyl)-4-methyl-6-oxo-3,6-dihydropyridine-1(2H)-carboxamide]: the concentration for half-maximal inhibition (IC50) in experiment [1], in experiment [2] and in experiment [3] was at most 1 µM each time. For the same molecule, the inhibition at 1 µM in experiment [3] is at least 90%.

On to `O=C(Nc1cn2cc(Oc3ccc(NC(=O)N4CCN(c5ccc(F)cc5)C4=O)cc3F)ccc2n1)C1CC1` [Example 53, N-[4-({2-[(cyclopropylcarbonyl)amino]imidazo[1,2-a]pyridin-6-yl}oxy)-3-sfluorophenyl]-3-(4-fluorophenyl)-2-oxoimidazolidine-1-carboxamide], for which the IC50 in experiment [1], in experiment [2] and in experiment [3] was at most 1 µM each time. Besides, the inhibition at 1 µM is at least 50% in experiment [2] (1 μM test compound, read-out: inhibitory rate (%) at 1 μM) and at least 90% in experiment [3].

For the molecule `Cc1ccc(C(=O)Nc2ccc(Oc3ccc4nc(NC(=O)C5CC5)cn4c3)cn2)c(=O)n1-c1ccc(F)cc1` [Example 60, N-[5-({2-[(cyclopropylcarbonyl)amino]imidazo[1,2-a]pyridin-6-yl}oxy)pyridin-2-yl]-1-(4-fluorophenyl)-6-methyl-2-oxo-1,2-dihydropyridine-3-carboxamide], the IC50 in experiment [1], in experiment [2] and in experiment [3] was at most 1 µM throughout. Further, the inhibition at 1 µM in experiment [3] was at least 90%.

In the case of `O=C(Nc1cn2cc(Oc3ccc(NC(=O)C4(C(=O)Nc5ccc(F)cc5)CC4)cc3F)ccc2n1)C1CC1` [Example 11, N-[4-({2-[(cyclopropylcarbonyl)amino]imidazo[1,2-a]pyridin-6-yl}oxy)-3-fluorophenyl]-N′-(4-fluorophenyl)cyclopropane-1,1-dicarboxamide], the IC50 in experiment [1], in experiment [2] and in experiment [3] was at most 1 µM each time. For the same molecule, the inhibition at 1 µM in experiment [3] was at least 90%.
